# Source: PMC9010685, “Sensor dimer disruption as a new mode of action to block the IRE1-mediated unfolded protein response” (Computational and Structural Biotechnology Journal, 2022)
# Like-named read-outs stand apart in the source and are kept apart here.
# Biological target: T1, IRE1 (IRE1α, Inositol requiring enzyme 1α) (Homo sapiens, UniProt O75460)
# T1 construct: gene ERN1; recombinant IRE1 (aa 465–977, His & GST Tag); cytosolic domain
# Experiment: in vitro fluorescence RNase assay, cleavage of XBP1 mini-probe (Cy5)
# Assay type: biochemical
# T1 sequence (O75460 465-977): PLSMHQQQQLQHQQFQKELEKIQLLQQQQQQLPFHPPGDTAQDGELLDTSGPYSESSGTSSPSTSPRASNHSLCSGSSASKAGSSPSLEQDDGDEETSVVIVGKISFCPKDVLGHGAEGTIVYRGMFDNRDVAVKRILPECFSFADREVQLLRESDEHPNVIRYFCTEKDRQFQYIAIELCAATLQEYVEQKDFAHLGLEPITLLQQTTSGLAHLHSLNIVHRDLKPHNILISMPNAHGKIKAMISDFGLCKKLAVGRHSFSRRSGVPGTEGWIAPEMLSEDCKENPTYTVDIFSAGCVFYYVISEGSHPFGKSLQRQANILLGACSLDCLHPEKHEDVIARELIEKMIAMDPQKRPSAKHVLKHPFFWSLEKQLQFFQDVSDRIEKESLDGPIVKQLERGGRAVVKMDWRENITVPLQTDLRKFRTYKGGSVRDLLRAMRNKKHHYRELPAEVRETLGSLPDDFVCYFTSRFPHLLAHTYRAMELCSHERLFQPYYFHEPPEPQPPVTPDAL
SMILES,IC50 [nM],IC50 (read-out: IC50) [nM]
"C[C@@H]1O[C@@H](Oc2c(-c3ccc(O)c(O)c3)oc3cc(O)cc(O)c3c2=O)[C@H](O)[C@H](O)[C@H]1O [Qi, quercitrin]",230 ± 100,
"Nc1nc2[nH]cc(CCc3ccc(C(=O)N[C@@H](CCC(=O)O)C(=O)O)cc3)c2c(=O)[nH]1 [PMT, pemetrexed]",260 ± 200,
NC[C@@H]1O[C@H](O[C@H]2[C@@H](O)[C@H](O[C@@H]3[C@@H](O)[C@H](N)C[C@H](N)[C@H]3O[C@H]3O[C@H](CN)[C@@H](O)[C@H](O)[C@H]3N)O[C@@H]2CO)[C@H](N)[C@@H](O)[C@@H]1O [neomycin],,330 ± 300
C[C@@H]1O[C@@H](OC[C@H]2O[C@@H](Oc3c(-c4ccc(O)c(O)c4)oc4cc(O)cc(O)c4c3=O)[C@H](O)[C@@H](O)[C@@H]2O)[C@H](O)[C@H](O)[C@H]1O [rutin],530 ± 300,
